Test results published in article PMC9327782, “Benzoxazole derivatives as new VEGFR-2 inhibitors and apoptosis inducers: design, synthesis, in silico studies, and antiproliferative evaluation” (Journal of Enzyme Inhibition and Medicinal Chemistry, 2022).
Read-outs that look alike come from different tables or passages of the source.

Experiments:
HepG2 cell line = experiment: In vitro anti-proliferative MTT assay, HepG2; format: cell-based, human
Source text: (§1) The cytotoxicity results were obtained as median growth inhibitory concentration (IC50).
(§2) MTT assay protocol. This method was applied in accordance with the comprehensive description in Supplementary data. […]
(§3) 5 Raw data of cytotoxity and VEGFR -2 assay […]
(§4) Experimental of biological testing
(§5) 1. In vitro anti-proliferative activity
(§6) MTT assay protocol was applied to assess the anti-proliferative activity of the synthesized compounds. Two human cancer cell lines (MCF-7 and HepG-2) and one normal cell line (WI-38) were used in this test. At first, the cell lines were cultured in RPMI -1640 medium with 10% fetal bovine serum. Antibiotics (100 units/ml penicillin and100 µg/ml streptomycin ) were added at 37 °C in a 5% CO2 incubator. The cell lines were seeded in a 96-well plate at a density of 1.0 x 10^4 cells / well at 37 °C for 24 h under 5% CO2. After incubation, the cells were treated with different […]
(§7) concentration of the synthesized compounds and incubated for 24 h. After 24 h of drug treatment, 20 µl of MTT solution at 5mg/ml was added and incubated for 4 h. Dimethyl sulfoxide (DMSO) in volume of 100 µl was added into each well to dissolve the purple formazan formed. The colorimetric assay was measured and recorded at absorbance of 570 nm using a plate reader (EXL 800, USA). The relative cell viability in percentage was calculated as (A570 of treated samples/A570 of untreated sample) X 100. […]

MCF-7 cell line = experiment: In vitro anti-proliferative MTT assay, MCF-7; format: cell-based, human
Source text: as §1, §2, §3, §4, §5, §6, §7

WI-38 cell line = experiment: In vitro cytotoxicity against normal cell line (MTT); format: cell-based, human; set-up: LogIC50 best-fit value, WI-38: unit not given here; details: for IC50: WI-38, normal human lung cell line, MTT; for HillSlope best-fit value, WI-38 / LogIC50 best-fit value, WI-38: supplement raw data, dose-response curve fit
Source text: […]. Such values were very high in comparison to the corresponding values on cancer cell lines, which reflect high safety profile of the tested candidates towards normal cell lines.
as §2, §3, §4, §5, §6, §7

VEGFR-2 = molecular target: T1, VEGFR-2 (Homo sapiens, UniProt P35968); experiment: In vitro VEGFR-2 kinase assay (ELISA kit); format: biochemical; details: for IC50: ELISA kit; for HillSlope best-fit value, VEGFR-2 / LogIC50 best-fit value, VEGFR-2: supplement raw data, curve fit
T1 construct: purchased
T1 sequence (P35968 20-1356): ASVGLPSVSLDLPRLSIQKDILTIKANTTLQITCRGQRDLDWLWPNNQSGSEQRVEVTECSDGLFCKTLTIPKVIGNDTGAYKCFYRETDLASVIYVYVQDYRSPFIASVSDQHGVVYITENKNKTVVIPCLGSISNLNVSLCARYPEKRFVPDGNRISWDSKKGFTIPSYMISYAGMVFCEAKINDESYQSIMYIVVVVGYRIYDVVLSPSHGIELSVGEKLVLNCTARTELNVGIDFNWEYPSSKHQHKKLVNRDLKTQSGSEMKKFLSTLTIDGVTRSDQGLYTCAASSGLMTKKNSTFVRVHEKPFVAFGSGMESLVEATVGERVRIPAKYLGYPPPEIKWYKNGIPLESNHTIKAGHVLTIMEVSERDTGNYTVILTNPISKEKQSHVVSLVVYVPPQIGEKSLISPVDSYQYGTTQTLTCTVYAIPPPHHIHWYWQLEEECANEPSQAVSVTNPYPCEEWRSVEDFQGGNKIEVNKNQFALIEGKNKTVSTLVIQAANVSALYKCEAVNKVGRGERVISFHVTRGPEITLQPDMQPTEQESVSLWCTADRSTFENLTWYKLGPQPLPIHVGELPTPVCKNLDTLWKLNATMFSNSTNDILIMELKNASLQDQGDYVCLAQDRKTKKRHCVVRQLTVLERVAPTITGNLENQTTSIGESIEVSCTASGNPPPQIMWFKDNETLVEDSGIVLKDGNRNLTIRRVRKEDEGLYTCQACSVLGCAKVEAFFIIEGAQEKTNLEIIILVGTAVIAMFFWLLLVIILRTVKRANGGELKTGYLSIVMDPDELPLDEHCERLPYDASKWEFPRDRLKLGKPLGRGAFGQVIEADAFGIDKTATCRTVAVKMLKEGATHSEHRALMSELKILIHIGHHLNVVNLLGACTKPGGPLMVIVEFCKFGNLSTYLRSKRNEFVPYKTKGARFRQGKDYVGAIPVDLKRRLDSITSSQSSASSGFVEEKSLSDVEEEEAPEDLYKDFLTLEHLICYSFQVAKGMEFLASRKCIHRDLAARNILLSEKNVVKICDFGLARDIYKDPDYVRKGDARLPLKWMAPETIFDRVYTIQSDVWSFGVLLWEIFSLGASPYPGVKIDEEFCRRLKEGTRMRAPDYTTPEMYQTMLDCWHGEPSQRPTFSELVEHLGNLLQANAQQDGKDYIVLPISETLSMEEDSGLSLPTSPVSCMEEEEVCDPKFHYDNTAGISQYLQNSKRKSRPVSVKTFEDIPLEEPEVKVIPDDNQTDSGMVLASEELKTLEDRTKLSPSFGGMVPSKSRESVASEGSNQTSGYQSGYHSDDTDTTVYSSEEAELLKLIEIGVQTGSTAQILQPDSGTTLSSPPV
Method: The assay was applied by ELISA kits in accordance with the comprehensive description in[18]^,[33] as described in Supplementary data. […]
2. In vitro VEGFR-2 kinase assay
All the synthesized compounds were tested for its inhibitory activity against VEGFR-2. Human VEGFR-2 ELISA kit (Enzyme-Linked Immunosorbent Assay) was utilized in this test. At first, specific antibody for VEGFR-2 was seeded on a 96-well plate and 100 μL of the standard solution or the tested compound was added, all were incubated at room temperature for 2.5 h. Then washed, 100 μL of the prepared biotin antibody was added, then incubated at room temperature for additional 1 h. and washed. Then, 100 μL of streptavidin solution was added and incubated for 45 min. at room temperature. Washed again, 100 μL of TMB Substrate reagent was added and incubated for 30 min. at room temperature. 50 μL of the stop solution was added, then read at 450 […]
nm immediately. […]

[1] = Homo sapiens, HepG2, 24 h, MTT, 24 h treatment, mean of three experiments, read-out: In vitro IC50 HepG2
[2] = Homo sapiens, HepG2, supplement raw data, dose-response curve fit, read-out: LogIC50 best-fit value, HepG2 (converted)
[3] = Homo sapiens, MCF7, 24 h, MTT, 24 h treatment, mean of three experiments, read-out: In vitro IC50 MCF-7
[4] = Homo sapiens, MCF7, supplement raw data, dose-response curve fit, read-out: LogIC50 best-fit value, MCF-7 (converted)
[5] = Homo sapiens, HepG2, supplement raw data, dose-response curve fit, read-out: IC50 best-fit value, HepG2

| Structure (SMILES) | IC50 (HepG2 cell line; [1]) [µM] | IC50 (HepG2 cell line; [2]) [µM] | IC50 (MCF-7 cell line; [3]) [µM] | IC50 (MCF-7 cell line; [4]) [µM] | IC50 (VEGFR-2) [µM] | HillSlope best-fit value, VEGFR-2 (VEGFR-2) | LogIC50 best-fit value, VEGFR-2 (VEGFR-2) | IC50 (HepG2 cell line; [5]) [µM] | IC50 (MCF-7 cell line; Homo sapiens, MCF7, supplement raw data, dose-response curve fit, read-out: IC50 best-fit value, MCF-7) [µM] | IC50 (HepG2 cell line; MTT, 24 h treatment, mean of three experiments, read-out: In vitro IC50 HepG2) [µM] | IC50 (MCF-7 cell line; MTT, 24 h treatment, mean of three experiments, read-out: In vitro IC50 MCF-7) [µM] | IC50 (WI-38 cell line) [µM] | HillSlope best-fit value, WI-38 (WI-38 cell line) | LogIC50 best-fit value, WI-38 (WI-38 cell line) |
| --- | --- | --- | --- | --- | --- | --- | --- | --- | --- | --- | --- | --- | --- | --- |
| CC(C)(C)NC(=O)c1ccc(NC(=O)CSc2nc3ccccc3o2)cc1 [Compound 12d, 4–(2-(Benzo[d]oxazol-2-ylthio)acetamido)-N-(tert-butyl)benzamide] | 23.6 ± 2.1 | 23.6 | 44.1 ± 3.8 | 44.1 | 0.195 | -0.4166 | 2.289 Log (nM) |  |  |  |  | 99.4 | -0.3751 | 1.997 |
| COc1cccc(NC(=O)c2ccc(NC(=O)CSc3nc4cc(C)ccc4o3)cc2)c1 [Compound 12i, N-(3-Methoxyphenyl)-4–(2-((5-methylbenzo[d]oxazol-2-yl)thio)acetamido)benzamide] | 27.3 ± 2.2 | 27.3 | 28 ± 2.1 | 28 | 0.155 | -0.3818 | 2.190 Log (nM) |  |  |  |  | 76.8 | -0.4944 | 1.885 |
| CC(C)(C)NC(=O)c1ccc(NC(=O)CSc2nc3cc(Cl)ccc3o2)cc1 [Compound 12e, N-(Tert-butyl)-4–(2-((5-chlorobenzo[d]oxazol-2-yl)thio)acetamido)benzamide] | 71.6 ± 6.7 | 71.6 | 62.3 ± 5.8 | 62.2 |  |  |  |  |  |  |  |  |  |  |
| O=C(CSc1nc2ccccc2o1)Nc1ccc(C(=O)NC2CCCC2)cc1 [Compound 12a, 4–(2-(Benzo[d]oxazol-2-ylthio)acetamido)-N-cyclopentylbenzamide] | 38.8 ± 3.2 | 38.8 | 33.3 ± 2.9 | 33.3 |  |  |  |  |  |  |  |  |  |  |
| O=C(CSc1nc2cc(Cl)ccc2o1)Nc1ccc(C(=O)NC2CCCC2)cc1 [Compound 12b, 4–(2-((5-Chlorobenzo[d]oxazol-2-yl)thio)acetamido)-N-cyclopentylbenzamide] | 64.2 ± 6.1 | 64.1 | 77 ± 7.3 | 77.1 |  |  |  |  |  |  |  |  |  |  |
| Cc1ccc2oc(SCC(=O)Nc3ccc(C(=O)NC4CCCC4)cc3)nc2c1 [Compound 12c, N-Cyclopentyl-4–(2-((5-methylbenzo[d]oxazol-2-yl)thio)acetamido)benzamide] | 74.3 ± 6.8 | 74.3 | 36.7 ± 3.3 | 36.7 |  |  |  |  |  |  |  |  |  |  |
| Cc1ccc2oc(SCC(=O)Nc3ccc(C(=O)NC(C)(C)C)cc3)nc2c1 [Compound 12f, N-(Tert-butyl)-4–(2-((5-methylbenzo[d]oxazol-2-yl)thio)acetamido)benzamide] | 37 ± 3.4 | 37 | 22.5 ± 1.8 | 22.5 | 0.265 | -0.3283 | 2.423 Log (nM) |  |  |  |  |  |  |  |

More lines, main results first:

| IC50 (HepG2 cell line; [1]) [µM] | IC50 (HepG2 cell line; [2]) [µM] | IC50 (MCF-7 cell line; [3]) [µM] | IC50 (MCF-7 cell line; [4]) [µM] | IC50 (VEGFR-2) [µM] | HillSlope best-fit value, VEGFR-2 (VEGFR-2) | LogIC50 best-fit value, VEGFR-2 (VEGFR-2) | IC50 (HepG2 cell line; [5]) [µM] | IC50 (MCF-7 cell line; Homo sapiens, MCF7, supplement raw data, dose-response curve fit, read-out: IC50 best-fit value, MCF-7) [µM] | IC50 (HepG2 cell line; MTT, 24 h treatment, mean of three experiments, read-out: In vitro IC50 HepG2) [µM] | IC50 (MCF-7 cell line; MTT, 24 h treatment, mean of three experiments, read-out: In vitro IC50 MCF-7) [µM] | Structure (SMILES) | IC50 (WI-38 cell line) [µM] | HillSlope best-fit value, WI-38 (WI-38 cell line) | LogIC50 best-fit value, WI-38 (WI-38 cell line) |
| --- | --- | --- | --- | --- | --- | --- | --- | --- | --- | --- | --- | --- | --- | --- |
| 28.4 ± 2.5 | 28.4 | 86.6 ± 7.8 | 86.7 |  |  |  |  |  |  |  | O=C(CSc1nc2cc(Cl)ccc2o1)Nc1ccc(C(=O)Nc2cccc(Cl)c2)cc1 [Compound 12k, 4–(2-((5-Chlorobenzo[d]oxazol-2-yl)thio)acetamido)-N-(3-chlorophenyl)benzamide] |  |  |  |
| 102 ± 8.5 | 102 | 85.6 ± 8.2 | 85.7 |  |  |  |  |  |  |  | COc1cccc(NC(=O)c2ccc(NC(=O)CSc3nc4cc(Cl)ccc4o3)cc2)c1 [Compound 12h, 4–(2-((5-Chlorobenzo[d]oxazol-2-yl)thio)acetamido)-N-(3-methoxyphenyl)benzamide] |  |  |  |
| 5.57 ± 0.4 | 5.57 | 6.46 ± 0.3 | 6.46 |  |  |  | 5.57 | 6.46 |  |  | CNC(=O)c1cc(Oc2ccc(NC(=O)Nc3ccc(Cl)c(C(F)(F)F)c3)cc2)ccn1 [Sorafenib, sorafenib, reference compound] | 22.1 | -0.4247 | 1.344 |
|  | 25.5 |  | 32.4 | 0.268 | -0.5089 | 2.428 Log (nM) |  |  |  |  | O=C(CSc1nc2ccccc2o1)Nc1ccc(C(=O)NNC(=O)c2cccc(Cl)c2)cc1 [Compound 13a, 2-(Benzo[d]oxazol-2-ylthio)-N-(4–(2-(3-chlorobenzoyl)hydrazine-1-carbonyl)phenyl)-acetamide] |  |  |  |
| 24.2 ± 2.1 | 24.4 | 53.1 ± 3.7 | 53.1 |  |  |  | 24.4 |  |  |  | Cc1ccc2oc(SCC(=O)Nc3ccc(C(=O)NNC(=O)c4cccc(Cl)c4)cc3)nc2c1 [Compound 13c, N-(4–(2-(3-Chlorobenzoyl)hydrazine-1-carbonyl)phenyl)-2-((5-methylbenzo[d]oxazol-2-yl)thio)acetamide] |  |  |  |
| 42.1 ± 3.8 | 42.1 | 26.3 ± 2.2 | 26.3 |  |  |  |  |  |  |  | O=C(CSc1nc2cc(Cl)ccc2o1)Nc1ccc(C(=O)NNC(=O)c2cccc(Cl)c2)cc1 [Compound 13b, 2-((5-Chlorobenzo[d]oxazol-2-yl)thio)-N-(4–(2-(3-chlorobenzoyl)hydrazine-1-carbonyl)-phenyl)acetamide] |  |  |  |
| 36.7 ± 2.9 | 36.6 | 53 ± 5.1 | 53 |  |  |  |  |  |  |  | COc1cccc(NC(=O)c2ccc(NC(=O)CSc3nc4ccccc4o3)cc2)c1 [Compound 12g, 4–(2-(Benzo[d]oxazol-2-ylthio)acetamido)-N-(3-methoxyphenyl)benzamide] |  |  |  |
| 33.6 | 50.9 | 50.9 | 33.6 |  |  |  |  |  | 50.9 ± 4.6 | 33.6 ± 2.8 | O=C(CSc1nc2ccccc2o1)Nc1ccc(C(=O)Nc2cccc(Cl)c2)cc1 [Compound 12j, 4–(2-(Benzo[d]oxazol-2-ylthio)acetamido)-N-(3-chlorophenyl)benzamide] |  |  |  |
